Assay results taken from ChEMBL document CHEMBL1145970 (J Med Chem, 2003).
Active and inactive are the calls of the source. The calls are words filed in the database; no cut-off is given here.

Columns and labels:
[1] = target: T1, 5-hydroxytryptamine receptor 1A (Rattus norvegicus, UniProt P19327); test: Binding affinity to the rat 5-hydroxytryptamine 1A receptor
T1 sequence (P19327 whole entry): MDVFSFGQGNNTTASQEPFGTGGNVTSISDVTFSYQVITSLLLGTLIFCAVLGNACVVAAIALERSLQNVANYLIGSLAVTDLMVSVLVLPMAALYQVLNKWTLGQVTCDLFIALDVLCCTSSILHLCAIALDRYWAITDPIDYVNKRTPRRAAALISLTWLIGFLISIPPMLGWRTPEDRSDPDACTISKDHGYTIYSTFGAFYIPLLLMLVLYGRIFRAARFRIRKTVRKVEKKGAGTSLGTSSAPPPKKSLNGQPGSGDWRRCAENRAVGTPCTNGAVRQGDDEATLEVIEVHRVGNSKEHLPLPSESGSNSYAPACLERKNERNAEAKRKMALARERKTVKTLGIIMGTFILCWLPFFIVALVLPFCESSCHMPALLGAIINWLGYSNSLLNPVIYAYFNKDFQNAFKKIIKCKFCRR

[2] = target: 5-hydroxytryptamine receptor 7 (Rattus norvegicus, UniProt P32305); test: Binding affinity to the rat 5-hydroxytryptamine 7 receptor
5-hydroxytryptamine receptor 7, sequence (P32305 whole entry): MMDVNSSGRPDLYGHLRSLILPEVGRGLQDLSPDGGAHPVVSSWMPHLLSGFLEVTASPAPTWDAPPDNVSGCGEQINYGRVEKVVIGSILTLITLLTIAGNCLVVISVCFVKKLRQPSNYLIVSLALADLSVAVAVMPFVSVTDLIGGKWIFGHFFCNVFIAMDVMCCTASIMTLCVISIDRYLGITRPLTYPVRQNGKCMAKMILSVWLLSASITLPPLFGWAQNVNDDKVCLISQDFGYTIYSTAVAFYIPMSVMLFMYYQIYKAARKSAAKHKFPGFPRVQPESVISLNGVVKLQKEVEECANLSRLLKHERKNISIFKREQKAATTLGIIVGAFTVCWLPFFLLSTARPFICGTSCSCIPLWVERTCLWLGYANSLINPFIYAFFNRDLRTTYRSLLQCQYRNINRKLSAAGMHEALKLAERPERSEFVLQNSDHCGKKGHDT

D(3) dopamine receptor = D(3) dopamine receptor (Rattus norvegicus, UniProt P19020); test: Binding affinity of compound was tested for Dopamine receptor D3
D(3) dopamine receptor, sequence (P19020 whole entry): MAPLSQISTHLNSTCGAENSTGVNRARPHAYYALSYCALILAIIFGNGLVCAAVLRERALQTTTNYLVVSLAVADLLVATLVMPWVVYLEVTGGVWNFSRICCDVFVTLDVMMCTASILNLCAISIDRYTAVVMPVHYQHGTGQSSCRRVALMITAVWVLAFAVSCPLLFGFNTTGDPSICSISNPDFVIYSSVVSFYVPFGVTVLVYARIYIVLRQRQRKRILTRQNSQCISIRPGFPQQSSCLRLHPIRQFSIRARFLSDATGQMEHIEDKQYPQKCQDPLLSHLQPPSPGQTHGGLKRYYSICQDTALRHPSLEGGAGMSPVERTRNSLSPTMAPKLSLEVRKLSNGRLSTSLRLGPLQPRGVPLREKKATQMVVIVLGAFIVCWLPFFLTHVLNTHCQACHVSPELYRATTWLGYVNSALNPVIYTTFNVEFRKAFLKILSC

[3] = target: 5-hydroxytryptamine receptor 7 (Rattus norvegicus) (UniProt P32305); settings: Ileum
5-hydroxytryptamine receptor 7 (Rattus norvegicus), sequence (P32305 whole entry): as the sequence (P32305 whole entry) above

[4] = target: 5-hydroxytryptamine receptor 2A (Rattus norvegicus, UniProt P14842); test: Binding affinity of compound was tested for 5-hydroxytryptamine 2A receptor
5-hydroxytryptamine receptor 2A, sequence (P14842 whole entry): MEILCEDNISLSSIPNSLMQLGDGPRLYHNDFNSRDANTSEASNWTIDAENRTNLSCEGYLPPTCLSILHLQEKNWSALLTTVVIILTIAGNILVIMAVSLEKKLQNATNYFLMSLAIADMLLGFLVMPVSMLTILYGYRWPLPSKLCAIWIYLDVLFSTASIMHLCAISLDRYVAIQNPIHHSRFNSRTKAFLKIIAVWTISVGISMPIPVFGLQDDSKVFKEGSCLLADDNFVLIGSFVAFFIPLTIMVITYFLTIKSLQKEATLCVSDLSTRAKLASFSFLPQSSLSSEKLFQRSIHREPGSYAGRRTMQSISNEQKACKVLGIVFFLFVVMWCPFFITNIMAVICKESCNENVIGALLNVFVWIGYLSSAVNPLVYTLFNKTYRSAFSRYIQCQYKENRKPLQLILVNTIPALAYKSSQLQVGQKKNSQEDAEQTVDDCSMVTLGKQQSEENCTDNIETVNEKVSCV

[5] = target: T2, Adrenergic receptor alpha-1 (Rattus norvegicus, UniProt P15823+P23944+P43140); test: Binding affinity of compound was tested for Alpha-1 adrenergic receptor; format: protein assay
T2 sequence (P15823 whole entry): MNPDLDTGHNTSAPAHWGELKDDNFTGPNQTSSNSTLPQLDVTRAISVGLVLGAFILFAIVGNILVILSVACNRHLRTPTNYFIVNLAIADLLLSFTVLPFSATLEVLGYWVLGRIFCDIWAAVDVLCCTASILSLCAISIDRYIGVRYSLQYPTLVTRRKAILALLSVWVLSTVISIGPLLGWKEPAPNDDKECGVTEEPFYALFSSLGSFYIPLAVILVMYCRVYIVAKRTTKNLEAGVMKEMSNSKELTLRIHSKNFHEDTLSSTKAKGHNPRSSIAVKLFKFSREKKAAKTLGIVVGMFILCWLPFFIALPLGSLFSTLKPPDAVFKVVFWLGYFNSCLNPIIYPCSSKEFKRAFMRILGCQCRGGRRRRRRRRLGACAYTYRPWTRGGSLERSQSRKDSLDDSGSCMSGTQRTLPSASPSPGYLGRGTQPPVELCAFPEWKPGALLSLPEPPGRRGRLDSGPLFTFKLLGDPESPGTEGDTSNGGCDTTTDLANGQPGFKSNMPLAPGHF
T2 sequence (P23944 whole entry): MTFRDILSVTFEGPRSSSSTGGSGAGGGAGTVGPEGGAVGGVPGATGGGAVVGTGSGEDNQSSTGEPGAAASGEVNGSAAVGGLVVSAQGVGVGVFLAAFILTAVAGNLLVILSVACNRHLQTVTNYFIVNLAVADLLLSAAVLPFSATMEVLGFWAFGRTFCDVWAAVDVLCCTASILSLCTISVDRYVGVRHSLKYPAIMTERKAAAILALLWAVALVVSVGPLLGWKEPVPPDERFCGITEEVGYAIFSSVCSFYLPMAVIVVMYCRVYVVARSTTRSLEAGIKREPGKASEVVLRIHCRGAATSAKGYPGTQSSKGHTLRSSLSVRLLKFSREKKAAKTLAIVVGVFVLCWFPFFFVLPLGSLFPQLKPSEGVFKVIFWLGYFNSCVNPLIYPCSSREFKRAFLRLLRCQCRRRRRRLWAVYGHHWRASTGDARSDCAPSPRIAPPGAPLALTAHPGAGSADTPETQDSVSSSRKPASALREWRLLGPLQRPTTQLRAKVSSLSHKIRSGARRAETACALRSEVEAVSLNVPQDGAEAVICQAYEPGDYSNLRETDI
T2 sequence (P43140 whole entry): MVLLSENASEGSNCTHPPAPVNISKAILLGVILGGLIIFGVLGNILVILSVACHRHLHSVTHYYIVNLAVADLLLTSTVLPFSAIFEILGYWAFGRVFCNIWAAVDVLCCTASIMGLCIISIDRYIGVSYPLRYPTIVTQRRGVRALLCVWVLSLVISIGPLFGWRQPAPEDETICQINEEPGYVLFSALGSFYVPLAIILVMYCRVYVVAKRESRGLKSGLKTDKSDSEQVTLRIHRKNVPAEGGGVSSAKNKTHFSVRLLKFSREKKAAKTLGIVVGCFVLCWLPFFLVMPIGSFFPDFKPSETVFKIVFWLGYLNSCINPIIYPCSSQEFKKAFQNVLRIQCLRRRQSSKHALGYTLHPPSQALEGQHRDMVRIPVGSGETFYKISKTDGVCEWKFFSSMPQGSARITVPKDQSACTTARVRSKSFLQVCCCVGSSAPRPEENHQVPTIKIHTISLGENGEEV

D(4) dopamine receptor = target: T3, D(4) dopamine receptor (Homo sapiens, UniProt P21917); test: Binding affinity of compound was tested for Dopamine receptor D4
T3 sequence (P21917 whole entry): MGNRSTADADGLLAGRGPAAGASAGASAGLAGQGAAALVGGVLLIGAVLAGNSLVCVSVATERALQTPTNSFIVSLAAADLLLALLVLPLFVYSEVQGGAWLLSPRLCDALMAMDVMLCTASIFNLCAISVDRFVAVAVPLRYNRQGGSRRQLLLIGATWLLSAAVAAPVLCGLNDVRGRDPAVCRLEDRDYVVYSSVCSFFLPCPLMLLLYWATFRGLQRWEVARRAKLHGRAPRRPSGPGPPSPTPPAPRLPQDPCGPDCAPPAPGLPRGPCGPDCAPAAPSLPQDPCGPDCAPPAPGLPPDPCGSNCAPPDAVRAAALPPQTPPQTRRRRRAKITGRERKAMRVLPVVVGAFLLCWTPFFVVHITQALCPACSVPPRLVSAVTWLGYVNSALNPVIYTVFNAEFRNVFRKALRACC

D(2) dopamine receptor = D(2) dopamine receptor (Homo sapiens, UniProt P14416); test: Binding affinity of compound was tested for Dopamine receptor D2L
D(2) dopamine receptor, sequence (P14416 whole entry): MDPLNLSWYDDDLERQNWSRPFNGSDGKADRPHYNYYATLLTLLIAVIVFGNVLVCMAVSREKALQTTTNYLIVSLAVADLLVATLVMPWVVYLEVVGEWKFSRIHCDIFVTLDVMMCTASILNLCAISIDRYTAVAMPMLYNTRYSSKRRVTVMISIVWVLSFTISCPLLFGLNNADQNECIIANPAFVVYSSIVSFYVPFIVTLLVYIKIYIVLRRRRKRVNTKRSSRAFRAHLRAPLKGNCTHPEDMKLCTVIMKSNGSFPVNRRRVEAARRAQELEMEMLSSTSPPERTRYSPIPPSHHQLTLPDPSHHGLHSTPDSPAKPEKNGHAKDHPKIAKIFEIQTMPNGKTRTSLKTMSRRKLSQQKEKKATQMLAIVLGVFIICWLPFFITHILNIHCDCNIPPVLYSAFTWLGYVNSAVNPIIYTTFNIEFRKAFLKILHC

[6] = test system: 5-hydroxytryptamine receptor 7 (Cavia porcellus); test: Maximal relaxation effect induced by 3 uM compound on substance P stimulated guinea pig ileum with 5-hydroxytryptamine 7 receptor nondesensitization
[7] = test system: 5-hydroxytryptamine receptor 7 (Cavia porcellus); test: Maximal relaxation effect induced by 3 uM compound on substance P stimulated guinea pig ileum with 5-hydroxytryptamine 7 receptor desensitization
[8] = target: 5-hydroxytryptamine receptor 7 (Rattus norvegicus) (UniProt P32305); settings: Ileum; remark: listed apart in the source
Description: Maximal relaxation effect induced by 3 uM compound on substance P stimulated guinea pig ileum with 5-hydroxytryptamine receptor desensitization

Row | SMILES | Ki [1] [µM] | Ki [2] [µM] | other results
1 | COc1ccccc1C(=O)CCCCCN1CCN(c2noc3ccccc23)CC1 | 0.175 | 0.0009 | Ki (D(3) dopamine receptor): 0.0549 µM; Relaxation [3]: inactive; Ki [4]: 0.00903 µM; Ki [5]: 0.00041 µM; Ki (D(4) dopamine receptor): 0.00394 µM; Ki (D(2) dopamine receptor): 0.0781 µM
2 | COc1ccccc1N1CCN(CCCCCC(=O)c2ccccc2)CC1 | 0.0064 | 0.0284 | –
3 | COc1ccc2onc(N3CCN(CCCCCC(=O)c4ccccc4O)CC3)c2c1 | 0.389 | 0.462 | –
4 | O=C(CCCCCN1CCN(c2nc3ccccc3[nH]2)CC1)c1ccccc1O | > 0.85 | 0.682 | –
5 | COc1ccccc1N1CCN(CCCCC(=O)c2cccc(O)c2)CC1 | 0.0037 | 0.015 | –
6 | COc1ccccc1N1CCN(CCCCC(=O)c2ccccc2)CC1 | 0.007 | 0.0435 | –
7 | COc1ccccc1N1CCN(CCCCCC(=O)c2cccc(O)c2)CC1 | 0.024 | 0.0268 | –
8 | COc1cccc(C(=O)CCCCN2CCN(c3ccccc3OC)CC2)c1 | 0.0034 | 0.085 | –
9 | O=C(CCCN1CCN(c2noc3ccccc23)CC1)c1ccccc1O | 1.06 | 0.0195 | –
10 | O=C(CCCCCN1CCN(C2CCCCC2)CC1)c1ccccc1O | > 0.85 | > 0.8 | –
11 | COc1ccccc1N1CCN(CCCCCC(=O)c2ccc(O)cc2)CC1 | 0.014 | 0.0237 | –
12 | COc1ccccc1N1CCN(CCCCC(=O)c2ccc(O)cc2)CC1 | 0.02 | 0.0591 | –
13 | COc1cccc(C(=O)CCCN2CCN(c3ccccc3OC)CC2)c1 | 0.00078 | 0.109 | –
14 | COc1cccc(C(=O)CCCCCN2CCN(c3ccccc3OC)CC2)c1 | 0.0034 | 0.046 | –
15 | NCCc1c[nH]c2ccc(C(N)=O)cc12 | – | 0.00051 | Relaxation [8]: inactive
16 | CN1CCN(CCCCCC(=O)c2ccccc2O)CC1 | > 0.85 | > 1 | –

Further lines, with some results ahead:

Row | Ki [1] [µM] | Ki [2] [µM] | SMILES | other results
17 | 0.137 | 0.043 | O=C(CCCCCN1CCN(c2ccccc2)CC1)c1ccccc1O | –
18 | 0.919 | 0.052 | O=C(CCCCN1CCN(c2noc3ccccc23)CC1)c1ccccc1O | –
19 | 1.46 | 0.148 | O=C(CCCCCN1CCN(c2nc3ccccc3o2)CC1)c1ccccc1O | –
20 | 0.0041 | 0.0164 | COc1ccccc1N1CCN(CCCCC(=O)c2ccccc2O)CC1 | –
21 | 0.056 | 0.105 | O=C(CCCCCN1CCN(c2ccccn2)CC1)c1ccccc1O | –
22 | 0.189 | 0.00293 | O=C(CCCCCN1CCN(c2noc3ccccc23)CC1)c1ccccc1O | Ki (D(3) dopamine receptor): 0.361 µM; Ki [4]: 0.00797 µM; Relaxation [6]: 43%; Relaxation [7]: inactive; Ki [5]: 0.096 µM; Ki (D(4) dopamine receptor): 0.318 µM; Ki (D(2) dopamine receptor): 0.246 µM
23 | 0.282 | 0.384 | O=C(CCCCCN1CCN(c2cccc(C(F)(F)F)c2)CC1)c1ccccc1O | –
24 | 0.0058 | 0.0058 | COc1ccccc1N1CCN(CCCCCC(=O)c2ccccc2O)CC1 | –
